Measured values from ChEMBL document CHEMBL3769338, “Tricyclic phenothiazine and phenoselenazine derivatives as potential multi-targeting agents to treat Alzheimer's disease” (Medchemcomm, 2015).
Activity calls are given as the source filed them. The calls are words filed in the database; no cut-off is given here.

Legend:
[1] = biological target: Amyloid-beta precursor protein (Homo sapiens) (UniProt P05067); test: Inhibition of amyloid beta (1-42) self-induced aggregation (unknown origin) at 1 uM measured every 5 mins for 16 hrs by thioflavin T fluorescence method relative to control
[2] = Antioxidant activity assessed as DPPH free radical scavenging activity at 50 uM incubated for 60 mins in dark relative to control; format: physicochemical; conditions: 1 h
[3] = biological target: Acetylcholinesterase (Homo sapiens, UniProt P22303); test: Inhibition of human AChE using acetylthiocholine iodide as substrate preincubated for 5 mins followed by substrate addition measured after 60 to 300 sec by Ellman's method
[4] = Cytotoxicity against human SH-SY5Y cells assessed as cell viability at 50 uM after 24 hrs by MTT assay relative to untreated control; format: cell-based; conditions: read-out: Activity
[5] = biological target: Amyloid-beta precursor protein (Homo sapiens) (UniProt P05067); test: Inhibition of amyloid beta (1-42) self-induced aggregation (unknown origin) at 10 uM measured every 5 mins for 16 hrs by thioflavin T fluorescence method relative to control
[6] = biological target: Amyloid-beta precursor protein (Homo sapiens) (UniProt P05067); test: Inhibition of amyloid beta (1-42) self-induced aggregation (unknown origin) at 5 uM measured every 5 mins for 16 hrs by thioflavin T fluorescence method relative to control
[7] = biological target: T1, Cholinesterase (Homo sapiens, UniProt P06276)
Description: Inhibition of human BuChE using S-butyrylthiocholine iodide as substrate preincubated for 5 mins followed by substrate addition measured after 60 to 300 sec by Ellman's method

[8] = biological target: Amyloid-beta precursor protein (Homo sapiens) (UniProt P05067); test: Inhibition of amyloid beta (1-42) self-induced aggregation (unknown origin) at 25 uM measured every 5 mins for 16 hrs by thioflavin T fluorescence method relative to control
[9] = biological target: Amyloid-beta precursor protein (Homo sapiens) (UniProt P05067); test: Inhibition of amyloid beta (1-42) self-induced aggregation (unknown origin) measured every 5 mins for 16 hrs by thioflavin T fluorescence method
[10] = biological target: T1, Cholinesterase; test: Potency index, ratio of galantamine IC50 to compound IC50 for inhibition of human BuChE

T1 sequence (P06276 whole entry): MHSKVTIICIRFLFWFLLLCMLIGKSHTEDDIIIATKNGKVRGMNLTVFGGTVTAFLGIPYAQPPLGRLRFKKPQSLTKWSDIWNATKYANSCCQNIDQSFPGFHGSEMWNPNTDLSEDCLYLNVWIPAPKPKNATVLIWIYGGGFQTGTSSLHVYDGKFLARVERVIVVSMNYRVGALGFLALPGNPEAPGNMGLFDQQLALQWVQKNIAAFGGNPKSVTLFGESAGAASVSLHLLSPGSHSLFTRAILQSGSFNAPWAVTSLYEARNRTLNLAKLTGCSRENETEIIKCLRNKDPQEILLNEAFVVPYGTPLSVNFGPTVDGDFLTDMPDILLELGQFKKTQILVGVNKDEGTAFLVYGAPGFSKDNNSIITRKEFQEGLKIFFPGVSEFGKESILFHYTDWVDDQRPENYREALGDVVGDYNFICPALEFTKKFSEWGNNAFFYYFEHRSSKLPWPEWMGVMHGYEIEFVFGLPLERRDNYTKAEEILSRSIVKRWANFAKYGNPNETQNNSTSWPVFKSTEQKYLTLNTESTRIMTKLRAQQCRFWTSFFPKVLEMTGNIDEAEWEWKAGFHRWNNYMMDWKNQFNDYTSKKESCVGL
Chain of Acetylcholinesterase (P22303 whole entry): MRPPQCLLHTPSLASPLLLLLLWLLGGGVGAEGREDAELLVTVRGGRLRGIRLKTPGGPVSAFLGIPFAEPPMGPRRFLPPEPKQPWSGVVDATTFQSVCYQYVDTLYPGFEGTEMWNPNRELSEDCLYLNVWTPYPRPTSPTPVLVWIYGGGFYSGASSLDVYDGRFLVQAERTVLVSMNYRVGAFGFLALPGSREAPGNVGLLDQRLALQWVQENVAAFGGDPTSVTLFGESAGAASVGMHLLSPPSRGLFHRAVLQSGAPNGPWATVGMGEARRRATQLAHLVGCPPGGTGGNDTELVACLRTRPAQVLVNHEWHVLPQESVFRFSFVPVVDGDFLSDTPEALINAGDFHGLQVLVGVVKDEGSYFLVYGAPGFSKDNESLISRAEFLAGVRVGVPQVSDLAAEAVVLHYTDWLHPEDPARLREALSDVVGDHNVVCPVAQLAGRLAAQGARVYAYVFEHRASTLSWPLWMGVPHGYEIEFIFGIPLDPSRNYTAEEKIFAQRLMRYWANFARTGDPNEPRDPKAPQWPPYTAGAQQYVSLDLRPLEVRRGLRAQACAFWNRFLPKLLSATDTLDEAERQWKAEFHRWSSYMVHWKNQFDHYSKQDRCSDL
Chain of Amyloid-beta precursor protein (Homo sapiens) (P05067 whole entry): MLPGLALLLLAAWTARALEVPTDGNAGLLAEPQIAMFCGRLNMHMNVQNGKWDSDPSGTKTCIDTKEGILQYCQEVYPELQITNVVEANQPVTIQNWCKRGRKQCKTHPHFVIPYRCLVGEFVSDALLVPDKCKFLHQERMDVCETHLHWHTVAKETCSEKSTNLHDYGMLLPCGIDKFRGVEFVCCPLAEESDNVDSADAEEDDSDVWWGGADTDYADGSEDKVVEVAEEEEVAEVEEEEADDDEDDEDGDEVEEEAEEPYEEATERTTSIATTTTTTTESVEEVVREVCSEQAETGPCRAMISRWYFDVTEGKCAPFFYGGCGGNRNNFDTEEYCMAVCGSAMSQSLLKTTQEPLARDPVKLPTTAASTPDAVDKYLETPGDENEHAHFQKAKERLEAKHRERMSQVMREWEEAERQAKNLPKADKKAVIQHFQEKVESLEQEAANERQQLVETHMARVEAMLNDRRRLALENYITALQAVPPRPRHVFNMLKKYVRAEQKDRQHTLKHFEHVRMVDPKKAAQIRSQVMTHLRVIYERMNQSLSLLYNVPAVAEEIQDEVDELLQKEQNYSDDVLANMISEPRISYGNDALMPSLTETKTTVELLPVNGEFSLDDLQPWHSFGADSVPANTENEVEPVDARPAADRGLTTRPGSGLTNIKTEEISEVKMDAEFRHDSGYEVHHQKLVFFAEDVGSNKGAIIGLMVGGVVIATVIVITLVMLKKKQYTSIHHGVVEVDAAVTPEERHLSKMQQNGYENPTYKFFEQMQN

| SMILES | inhibition [1] | inhibition (INH) [2] [%] | IC50 [3] [µM] | viability at 24 h, 50 µM [4] [%] | inhibition [5] | inhibition [6] | IC50 [7] [µM] | inhibition [8] | inhibition [9] | Ratio IC50 [10] |
| --- | --- | --- | --- | --- | --- | --- | --- | --- | --- | --- |
| Clc1ccc2c(c1)Nc1ccccc1S2 | 10.3% | 76.4 | 7.4 | 63.3 | 33.7% | 22% | 19.2 | 60.8% |  |  |
| COc1ccc(C(=O)N2c3ccccc3Sc3ccccc32)cc1OC | inactive | 44.3 | 5.8 | 63.3 | inactive | inactive | 45 | inactive |  |  |
| O=C(CCc1ccccc1)N1c2ccccc2Sc2ccc(Cl)cc21 |  |  | 7.9 |  |  |  | 5 |  |  |  |
| Clc1ccc2c(c1)Nc1ccccc1[Se]2 | 14.5% | 73.2 | 6.3 | 43 | 25.1% | 18.5% | 4.7 | 45% |  |  |
| COc1ccc(C(=O)N2c3ccccc3[Se]c3ccccc32)cc1OC | 6.3% | 39 | 5.1 | 76 | 8.7% | 5.7% | 9.1 | 11.1% |  |  |
| O=C(Cc1ccccc1)N1c2ccccc2Sc2ccc(Cl)cc21 |  |  | 7.5 |  |  |  | 3.6 |  |  |  |
| O=C(CCc1ccccc1)N1c2ccccc2Sc2ccccc21 |  |  | 7.1 |  |  |  | 51 |  |  |  |
| O=C(Cc1ccccc1)N1c2ccccc2[Se]c2ccccc21 |  |  | 6.4 |  |  |  | 11 |  |  |  |
| COc1ccc(C(=O)N2c3ccccc3[Se]c3ccc(Cl)cc32)cc1OC | 8.4% | 38.3 | 6.2 | 76 | 9.1% | 7.9% | 5.7 | 5.9% |  |  |
| O=c1c2ccccc2[se]n1-c1ccccc1 [EBSELEN] |  | 34.7 | 6.2 | 53.9 |  |  | 4.6 |  |  |  |
| O=C(Cc1ccccc1)N1c2ccccc2[Se]c2ccc(Cl)cc21 |  |  | 6.5 |  |  |  | 5 |  |  |  |
| COc1ccc(C(=O)N2c3ccccc3Sc3ccccc32)cc1 |  |  | 6.3 |  |  |  | 53 |  |  |  |
| c1ccc2c(c1)Nc1ccccc1[Se]2 | 16.3% | 84.4 | 5.6 | 76 | 30.7% | 24.1% | 3 | 45.6% | Dose-dependent effect | 22 |
| COc1ccc(C(=O)N2c3ccccc3Sc3ccc(Cl)cc32)cc1 |  |  | 5.9 |  |  |  | 5.3 |  |  |  |
| O=C(c1ccccc1)N1c2ccccc2Sc2ccc(Cl)cc21 |  |  | 9.9 |  |  |  | 9.3 |  |  |  |
| O=C(c1ccccc1)N1c2ccccc2Sc2ccccc21 |  |  | 8 |  |  |  | > 100 |  |  |  |

| SMILES | inhibition [1] | inhibition (INH) [2] [%] | IC50 [3] [µM] | viability at 24 h, 50 µM [4] [%] | inhibition [5] | inhibition [6] | IC50 [7] [µM] | inhibition [8] | inhibition [9] | Ratio IC50 [10] |
| --- | --- | --- | --- | --- | --- | --- | --- | --- | --- | --- |
| c1ccc2c(c1)Nc1ccccc1S2 [PHENOTHIAZINE] | 18.3% | 92.1 | 7.3 | 63.3 | 59.1% | 37.2% | 5.8 | 62% | Dose-dependent effect | 11 |
| O=C(CCc1ccccc1)N1c2ccccc2[Se]c2ccccc21 |  |  | 6.7 |  |  |  | 38 |  |  |  |
| O=S(=O)(O)c1cc(S(=O)(=O)O)c2c(/N=N/c3ccccc3)c(O)ccc2c1 | 8.6% |  |  |  | 31% | 20.4% |  | 57.2% |  |  |
| O=C(c1ccccc1)N1c2ccccc2[Se]c2ccccc21 |  |  | 5.4 |  |  |  | 22.7 |  |  |  |
| O=C(Cc1ccccc1)N1c2ccccc2Sc2ccccc21 |  |  | 7.4 |  |  |  | 38.3 |  |  |  |
| COc1ccc(C(=O)N2c3ccccc3Sc3ccc(Cl)cc32)cc1OC | 6.2% | 46.5 | 6.4 | 63.3 | 6.5% | 4.5% | 32.6 | 5.9% |  |  |
| Cc1c(C)c2c(c(C)c1O)CCC(C)(C(=O)O)O2 (configuration not stated) [TROLOX] |  | 99.2 |  |  |  |  |  |  |  |  |
| COc1cccc(C(=O)N2c3ccccc3[Se]c3ccccc32)c1 |  |  | 6.2 |  |  |  | 9.6 |  |  |  |
| COc1cccc(C(=O)N2c3ccccc3[Se]c3ccc(Cl)cc32)c1 |  |  | 5.9 |  |  |  | 19.3 |  |  |  |
| COc1cccc(C(=O)N2c3ccccc3Sc3ccc(Cl)cc32)c1 |  |  | 4.6 |  |  |  | 30.8 |  |  |  |
| COc1ccc(C(=O)N2c3ccccc3[Se]c3ccc(Cl)cc32)cc1 |  |  | 5.8 |  |  |  | 4.9 |  |  |  |
| O=C(CCc1ccccc1)N1c2ccccc2[Se]c2ccc(Cl)cc21 |  |  | 6.3 |  |  |  | 40 |  |  |  |
| COc1cccc(C(=O)N2c3ccccc3Sc3ccccc32)c1 |  |  | 6.2 |  |  |  | 25.5 |  |  |  |
| COc1ccc(C(=O)N2c3ccccc3[Se]c3ccccc32)cc1 |  |  | 4.6 |  |  |  | 11.1 |  |  |  |
| O=C(c1ccccc1)N1c2ccccc2[Se]c2ccc(Cl)cc21 |  |  | 6 |  |  |  | 3.8 |  |  |  |
